Reference: patent US4481201A, “Pharmaceutical composition containing N,N^3 -di-(β-bromopropionyl)-N^1,N^2 -dispirotripiperazinium dichloride” (Vsesojuzny Nauchno-Issledovatelsky Khimoko-Farmasevtichesky …, priority 1981, dated 1984)

Legend:
[1] = system: sarcoma 180; test: Growth of graft sarcoma 180 in mice; type: in vivo, noninbred white mice; settings: mice, at MTD (dose not given)
Excerpt: (§1) The antitumor activity has been studied on white rats weighing 110-130 g, as well as on white noninbred and inbred mice weighing 17-21 g with ligated tumors. The treatment is started 5-7 days transplanting of solid tumors and the following day after the transplanting of leukotic strains. Use has been made of the following transplantable strains of the tumors:
(§2) (2) noninbred white mice: sarcoma 180, sarcoma AK, sarcoma 37, carcinoma HK;
(§3) The compounds of the general formula (I), wherein X represents Cl^- (compound 1), Br^- (compound 2) are well-soluble in an isotonic solution of sodium chloride and they are administered intraperitoneally. The doses of the compounds have been calculated in mg per kg of the animal bodyweight.

[2] = system: leukemia La; test: Life span of mice with transplantable leukemia La; type: in vivo, inbred mice; settings: leukemia La, MTD
Excerpt: as §1
(§4) (3) inbred mice: leukemia La, leukemia L1210 and P-388.
(§5) The activity of compounds relative to leukosis has been assessed by the life span (It) of treated animals as compared to the control ones. It --index of suppression of leukosis development is calculated by the formula: [formula]

[3] = Toxicity on single and repeated administration to mice; type: in vivo
Description: (3) acute toxicity of the compounds upon a single and repeated administration to white noninbred mice places into standard cages with 8 animals in each.
In the investigation of toxic properties of the compounds according to the present invention there has been determined the absolutely lethal dose (DL95), average lethal dose (DL50) and MTD. For compounds 1 and 2 there were determined DL95 and DL50 on healthy white mice with the body mass of 18-21 g at a single and repeated (once a day, daily for 7 days) intraperitoneal administration.

[4] = system: sarcoma 37; test: Growth of graft sarcoma 37 in mice; type: in vivo, noninbred white mice; settings: mice, at MTD (dose not given)
Excerpt: as §1, §2, §3

[5] = system: sarcoma M-1; test: Growth of graft sarcoma M-1 in rats; type: in vivo
Excerpt: as §1
(§6) (1) rats: Ienssen's sarcoma, sarcoma 45, sarcoma M-1, sarcoma 536;
as §3

[6] = system: transplantable leukemia; test: Activity relative to leukoses of inbred mice (overall); type: in vivo
Excerpt: (2) activity of the compounds relative to leukoses of inbred mice;
as §1, §4, §5

[7] = system: sarcoma AK; test: Growth of graft sarcoma AK in mice; type: in vivo, noninbred white mice; settings: mice, at MTD (dose not given)
Excerpt: as §1, §2, §3

[8] = system: sarcoma 45; test: Growth of graft sarcoma 45 in rats; type: in vivo; settings: for Change in the animal body weight, test / It, % tumor growth suppression index: rats
Excerpt: as §1, §6, §3

[9] = Solubility; type: physicochemical
Description: as §3
To a mixture of 3 g of N^1,N^2 -dispirotripiperazinium dichloride, 1.5 g of lithium hydroxide, 1 ml of water and 10 ml of ether a solution of 5.2 g of β-bromopropionic acid chlorid in 5 ml of ether is added under vigorous stirring and at a temperature of 5° to 10° C. The reaction mass is stirred for 2 hours at the temperature of 15° C. The residue is filtered off, dissolved in 10 ml of water; the resulting aqueous solution is poured in 100 ml of methanol.

[10] = system: sarcoma 536; test: Growth of graft sarcoma 536 in rats; type: in vivo
Excerpt: as §1, §6, §3

[11] = system: Ienssen's sarcoma; test: Growth of graft Ienssen sarcoma in rats; type: in vivo
Excerpt: as §1, §6, §3

[12] = mice, single intraperitoneal administration
[13] = 44 mg/kg intraperitoneally, 7 injections
[14] = 83 mg/kg intraperitoneally, 7 injections
[15] = rats, 81 mg/kg intraperitoneally, 6 injections
[16] = rats, 21 mg/kg intraperitoneally, 44 injections
[17] = rats, 39 mg/kg intraperitoneally, 5 injections
[18] = rats, 86 mg/kg intraperitoneally, 4 injections
[19] = rats, 88 mg/kg intraperitoneally, 5 injections
[20] = rats, 2,1 mg/kg intraperitoneally, 7 injections
[21] = rats, 4,2 mg/kg intraperitoneally, 7 injections

## O=C(CCBr)N1CC[N+]2(CC1)CC[N+]1(CCN(C(=O)CCBr)CC1)CC2 [Compound 2]
[1]
  suppression of sarcoma 180: 52%
[2]
  extension of life span of treated mice as compared to the control: 2 times
[3]; mice, repeated intraperitoneal administration (once a day, daily for 7 days)
  DL50 (average lethal dose): 150 mg/kg
[3]; [12]
  DL50 (average lethal dose): 1,150 mg/kg
  DL95 (absolutely lethal dose): 1,250 mg/kg
[3]; repeated intraperitoneal administration
  MTD: 125 mg/kg
[4]
  suppression of sarcoma 37: 60%
[5]; rats with sarcoma M-1, repeated intraperitoneal administration
  Maximum tolerable dose (MTD): 95 mg/kg
[5]; rats, 95 mg/kg intraperitoneally (MTD), 6 injections
  Change in the animal body weight, test: +8 g
[6]
  effect on transplantable leukemia in mice: clearly pronounced antileukotic effect
[7]
  suppression of sarcoma AK: 81%
[8]; rats with sarcoma 45, repeated intraperitoneal administration
  Maximum tolerable dose (MTD): 95 mg/kg
[8]; 20 mg/kg intraperitoneally, 7 injections
  Change in the animal body weight, test: -12 g
[8]; 20 mg/kg intraperitoneally, 7 injections, 20 mg/kg
  It, % tumor growth suppression index: +66%
[8]; [13]
  Change in the animal body weight, test: +4 g
  It, % tumor growth suppression index: +96%
[8]; [14]
  Change in the animal body weight, test: +6 g
  It, % tumor growth suppression index: +96%
[8]; 95 mg/kg intraperitoneally (MTD), 6 injections
  Change in the animal body weight, test: -6 g
[9]
  solubility in an isotonic solution of sodium chloride: well-soluble
[10]; rats with sarcoma 536, repeated intraperitoneal administration
  Maximum tolerable dose (MTD): 133 mg/kg
[10]; [15]
  Change in the animal body weight, test: -15 g
  It, % tumor growth suppression index: +52%
[10]; rats, 133 mg/kg intraperitoneally (MTD), 5 injections
  Change in the animal body weight, test: -14 g
[11]; Ienssen sarcoma
  Ch/T chemotherapeutical index (ratio of MTD to minimum effective dose): 50
[11]; rats with Ienssen sarcoma, repeated intraperitoneal administration
  Maximum tolerable dose (MTD): 149 mg/kg
[11]; rats, 8 mg/kg intraperitoneally, 7 injections
  Change in the animal body weight, test: +21 g
[11]; [16]
  Change in the animal body weight, test: +34 g
  It, % tumor growth suppression index: +90%
[11]; [17]
  Change in the animal body weight, test: +14 g
  It, % tumor growth suppression index: +99%
[11]; [18]
  Change in the animal body weight, test: +1 g
  It, % tumor growth suppression index: +99%
[11]; [19]
  Change in the animal body weight, test: +1 g
  It, % tumor growth suppression index: +99%
[11]; rats, 149 mg/kg intraperitoneally (MTD), 5 injections
  Change in the animal body weight, test: -30 g
[11]; [20]
  Change in the animal body weight, test: +5 g
  It, % tumor growth suppression index: +46%
[11]; [21]
  Change in the animal body weight, test: +6 g
  It, % tumor growth suppression index: +35%
